Data as given in patent US20150209315A1 (Cumberland Pharmaceuticals, priority 2009, published 2015).

System: post-operative adult patients
Experiment: Example 1: patient self-assessment of pain, VAS with movement
Assay type: in vivo, human
Design: key to VAS Score measured with Movement (median): VAS 0-10: 0 = no pain, 10 = intense pain
Details: 400 mg
Description: Pain was measured by the patient's self-assessment using a Visual Analog Scale (VAS) from 0-10 with 0 being no pain and 10 being intense pain. This was measured both at rest and with movement. […] […] To account for the missing pain assessments, two missing value approaches as described in the statistical analysis plan were used to impute values. To determine the difference in overall pain at differing time-points, the area under the VAS pain curve during the first 24 hours, between 6 and 24 hours and between 12 and 24 hours were analyzed.

In the case of `CC(C)Cc1ccc(C(C)C(=O)O)cc1` (stereo not drawn) [Ibuprofen, 2-(4-isobutylphenyl) propionic acid], the “VAS Score measured with Movement (median)” value (from here on “VAS Score … (median)”) (EEP, 1-Hour) is reported as 7.5, the “VAS Score measured with Movement, % Reduction vs Placebo” value (shortened to “VAS Score … % Reduction vs Placebo”) (EEP, 1-Hour) is reported as 6.2% and the “VAS Score … (median)” value (EEP, 2-Hour) is reported as 7.2. The “VAS Score … % Reduction vs Placebo” value (EEP, 2-Hour) was −1.4%, the “VAS Score … (median)” value (EEP, 3-Hour) was 6.2 and the “VAS Score … % Reduction vs Placebo” value (EEP, 3-Hour) was −3.3%. The “VAS Score … (median)” value (EEP, 6-Hour) was 5.7, the “VAS Score … % Reduction vs Placebo” value (EEP, 6-Hour) was −14.0% and the “VAS Score … (median)” value (EEP, 9-Hour) was 4.8. The “VAS Score … % Reduction vs Placebo” value (EEP, 9-Hour) was 4.0%, the “VAS Score … (median)” value (EEP, 12-Hour) was 4.5 and the “VAS Score … % Reduction vs Placebo” value (EEP, 12-Hour) was 10.0%. The “VAS Score … (median)” value (EEP, 15-Hour) was 4.0, the “VAS Score … % Reduction vs Placebo” value (EEP, 15-Hour) was 20.0% and the “VAS Score … (median)” value (EEP, 18-Hour) was 4.3. The “VAS Score … % Reduction vs Placebo” value (EEP, 18-Hour) was 14.0%, the “VAS Score … (median)” value (EEP, 21-Hour) was 4.0 and the “VAS Score … % Reduction vs Placebo” value (EEP, 21-Hour) was 20.0%. The “VAS Score … (median)” value (EEP, 24-Hour) was 5.0, the “VAS Score … % Reduction vs Placebo” value (EEP, 24-Hour) was −13.6% and the “VAS Score … (median)” value (EEP, 27-Hour) was 4.6. For the same molecule, the “VAS Score … % Reduction vs Placebo” value (EEP, 27-Hour) was −2.2%, the “VAS Score … (median)” value (EEP, 30-Hour) was 4.0 and the “VAS Score … % Reduction vs Placebo” value (EEP, 30-Hour) was 2.4%. For the same molecule, the “VAS Score … (median)” value (EEP, 33-Hour) was 3.9, the “VAS Score … % Reduction vs Placebo” value (EEP, 33-Hour) was −2.6% and the “VAS Score … (median)” value (EEP, 36-Hour) was 3.6. The “VAS Score … % Reduction vs Placebo” value (EEP, 36-Hour) was 7.7%, the “VAS Score … (median)” value (EEP, 39-Hour) was 3.1 and the “VAS Score … % Reduction vs Placebo” value (EEP, 39-Hour) was 8.8%. For the same molecule, the “VAS Score … (median)” value (EEP, 42-Hour) was 3.3, the “VAS Score … % Reduction vs Placebo” value (EEP, 42-Hour) was 5.7% and the “VAS Score … (median)” value (EEP, 45 Hour) was 3.3. For the same molecule, the “VAS Score … % Reduction vs Placebo” value (EEP, 45 Hour) was −6.5%, the “VAS Score … (median)” value (EEP, 48-Hour) was 3.2 and the “VAS Score … % Reduction vs Placebo” value (EEP, 48-Hour) was −33.3%. The “VAS Score … (median)” value (ITT, 1-Hour) was 7.5, the “VAS Score … % Reduction vs Placebo” value (ITT, 1-Hour) was 6.2% and the “VAS Score … (median)” value (ITT, 2-Hour) was 7.4. For the same molecule, the “VAS Score … % Reduction vs Placebo” value (ITT, 2-Hour) was −1.4%, the “VAS Score … (median)” value (ITT, 3-Hour) was 6.3 and the “VAS Score … % Reduction vs Placebo” value (ITT, 3-Hour) was 0.0%. For the same molecule, the “VAS Score … (median)” value (ITT, 6-Hour) was 5.7, the “VAS Score … % Reduction vs Placebo” value (ITT, 6-Hour) was 0.0% and the “VAS Score … (median)” value (ITT, 9-Hour) was 4.7. For the same molecule, the “VAS Score … % Reduction vs Placebo” value (ITT, 9-Hour) was 9.6%, the “VAS Score … (median)” value (ITT, 12-Hour) was 4.5 and the “VAS Score … % Reduction vs Placebo” value (ITT, 12-Hour) was 10.0%. For the same molecule, the “VAS Score … (median)” value (ITT, 15-Hour) was 3.9, the “VAS Score … % Reduction vs Placebo” value (ITT, 15-Hour) was 22.0% and the “VAS Score … (median)” value (ITT, 18-Hour) was 4.3. The “VAS Score … % Reduction vs Placebo” value (ITT, 18-Hour) was 14.0%, the “VAS Score … (median)” value (ITT, 21-Hour) was 4.1 and the “VAS Score … % Reduction vs Placebo” value (ITT, 21-Hour) was 16.3%. The “VAS Score … (median)” value (ITT, 24-Hour) was 4.6, the “VAS Score … % Reduction vs Placebo” value (ITT, 24-Hour) was −2.2% and the “VAS Score … (median)” value (ITT, 27 Hour) was 4.6. For the same molecule, the “VAS Score … % Reduction vs Placebo” value (ITT, 27 Hour) was −4.5%, the “VAS Score … (median)” value (ITT, 30-Hour) was 4.0 and the “VAS Score … % Reduction vs Placebo” value (ITT, 30-Hour) was 0.0%. The “VAS Score … (median)” value (ITT, 33-Hour) was 3.8, the “VAS Score … % Reduction vs Placebo” value (ITT, 33-Hour) was 0.0% and the “VAS Score … (median)” value (ITT, 36-Hour) was 3.6. For the same molecule, the “VAS Score … % Reduction vs Placebo” value (ITT, 36-Hour) was 10.0%, the “VAS Score … (median)” value (ITT, 39-Hour) was 3.1 and the “VAS Score … (median)” value (ITT, 42-Hour) was 3.3. For the same molecule, the “VAS Score … % Reduction vs Placebo” value (ITT, 42-Hour) was 2.9%, the “VAS Score … (median)” value (ITT, 45-Hour) was 3.3 and the “VAS Score … % Reduction vs Placebo” value (ITT, 45-Hour) was −6.5%.
